System: neuroligin-1 induced synaptogenesis
Assay: Synapse microarray coculture assay: NLG1-induced synapsin clustering
Type: cell-based, rat
Settings: for activity in coculture assay / NLG1-induced synaptogenesis (in words): synapse microarray, no single concentration stated

SMILES	activity in coculture assay / NLG1-induced synaptogenesis (in words)	effect on NLG1-induced synaptogenesis (in words) (10 μM)
Cc1[nH]c2ccccc2c1CCNCc1ccc(/C=C/C(=O)NO)cc1 [LBH-589]	potent	–
CCC(=O)CCCCC[C@@H]1NC(=O)[C@H]2CCCCN2C(=O)[C@H]([C@@H](C)CC)NC(=O)[C@H](Cc2cn(OC)c3ccccc23)NC1=O [apicidin]	greater potency than MS-275	–
O=C(CCCCCN1C(=O)c2cccc3cccc(c23)C1=O)NO [scriptaid]	potent	–
CCCC(CCC)C(=O)O [valproic acid]	–	neither of the two compounds, valproic acid and phenylbutyric acid, affected synaptogenesis

— publication PMC3544154 (Nature communications, 2011)
